The NIST ThermoML archive (doi:10.1016/j.jct.2015.12.021)

Settings: Liquid

CCCCCCC [heptane]
viscosity [mPa·s]
Settings	293.15 K	298.15 K	313.15 K	333.15 K	353.15 K	363.15 K
100 kPa, Vibrating wire viscometry	0.4151	0.3914	0.3379	0.2821	0.2406	0.2224
1000 kPa, Vibrating wire viscometry	0.4202	0.3962	0.3412	0.2844	0.2435	0.2254
5000 kPa, Falling or rolling sphere viscometry	0.4359	–	0.3564	–	–	–
5000 kPa, Vibrating wire viscometry	0.4354	0.4142	0.354	0.2965	0.2549	0.2374
10000 kPa, Falling or rolling sphere viscometry	0.4603	–	0.3756	–	–	–
10000 kPa, Vibrating wire viscometry	0.4579	0.4329	0.3735	0.3121	0.2672	0.2493
20000 kPa, Falling or rolling sphere viscometry	0.5074	–	0.4131	–	–	–
20000 kPa, Vibrating wire viscometry	0.5013	0.4756	0.4074	0.3415	0.2957	0.2757
30000 kPa, Falling or rolling sphere viscometry	0.5517	–	0.4518	–	–	–
30000 kPa, Vibrating wire viscometry	0.5459	0.5175	0.4462	0.3746	0.3216	0.2996
40000 kPa, Falling or rolling sphere viscometry	0.5949	–	0.4899	–	–	–
40000 kPa, Vibrating wire viscometry	0.595	0.5613	0.4806	0.4061	0.3493	0.3252
50000 kPa, Vibrating wire viscometry	0.6406	0.6081	0.5208	0.4355	0.373	0.3504
60000 kPa, Falling or rolling sphere viscometry	0.6912	–	0.5683	–	–	–
60000 kPa, Vibrating wire viscometry	0.6927	0.6535	0.5563	0.4681	0.4019	0.3754
70000 kPa, Vibrating wire viscometry	0.7446	0.7026	0.5992	0.5022	0.4304	0.3978
80000 kPa, Falling or rolling sphere viscometry	0.7864	–	0.6498	–	–	–
80000 kPa, Vibrating wire viscometry	0.7965	0.7519	0.64	0.5337	0.457	0.4243
100000 kPa, Falling or rolling sphere viscometry	0.9027	–	0.7309	–	–	–
100000 kPa, Vibrating wire viscometry	0.9106	0.8572	0.7259	0.603	0.5119	0.4782
120000 kPa, Falling or rolling sphere viscometry	1.031	–	0.8186	–	–	–
120000 kPa, Vibrating wire viscometry	1.028	0.972	0.8176	0.6736	0.5735	0.5314
140000 kPa, Vibrating wire viscometry	1.16	1.089	0.9137	0.7509	0.6335	0.5865

Cc1ccc(C)c(C)c1 [1,2,4-trimethylbenzene]
viscosity [mPa·s]
Settings	293.15 K	313.15 K	333.15 K	353.15 K
100 kPa, Vibrating wire viscometry	0.8929	0.6989	0.5596	0.4527
1000 kPa, Vibrating wire viscometry	0.9065	0.7096	0.5646	0.4566
5000 kPa, Falling or rolling sphere viscometry	0.913	0.7254	0.5819	0.4715
5000 kPa, Vibrating wire viscometry	0.9417	0.7359	0.5885	0.4711
10000 kPa, Falling or rolling sphere viscometry	0.9568	0.7531	0.6058	0.492
10000 kPa, Vibrating wire viscometry	0.9769	0.7606	0.6066	0.4886
20000 kPa, Falling or rolling sphere viscometry	1.042	0.8131	0.6529	0.532
20000 kPa, Vibrating wire viscometry	1.061	0.8203	0.6476	0.5283
30000 kPa, Falling or rolling sphere viscometry	1.137	0.8704	0.7014	0.571
30000 kPa, Vibrating wire viscometry	1.148	0.8894	0.6942	0.5626
40000 kPa, Falling or rolling sphere viscometry	1.224	0.9344	0.7504	0.6125
40000 kPa, Vibrating wire viscometry	1.233	0.9528	0.7426	0.5993
50000 kPa, Vibrating wire viscometry	1.336	1.026	0.7922	0.6375
60000 kPa, Falling or rolling sphere viscometry	–	1.07	0.8467	0.6967
60000 kPa, Vibrating wire viscometry	1.435	1.1	0.8456	0.6768
70000 kPa, Vibrating wire viscometry	1.566	1.171	0.9004	0.7177
80000 kPa, Falling or rolling sphere viscometry	–	1.25	0.9594	0.7819
80000 kPa, Vibrating wire viscometry	1.693	1.249	0.9675	0.7606
100000 kPa, Falling or rolling sphere viscometry	–	–	1.086	0.8778
100000 kPa, Vibrating wire viscometry	1.952	1.415	1.094	0.8518
120000 kPa, Falling or rolling sphere viscometry	–	–	1.228	0.9727
120000 kPa, Vibrating wire viscometry	2.288	1.599	1.221	0.9515
140000 kPa, Vibrating wire viscometry	2.668	1.824	1.343	1.065

CC(C)CC(C)(C)C [2,2,4-trimethylpentane]
viscosity [mPa·s]
Settings	293.15 K	298.15 K	313.15 K	323.15 K	333.15 K	348.15 K	353.15 K
100 kPa, Vibrating wire viscometry	0.5064	0.4746	0.4035	0.3645	0.3265	0.2829	0.2738
1000 kPa, Vibrating wire viscometry	0.51	0.4819	0.4114	0.3694	0.3296	0.2863	0.2748
5000 kPa, Falling or rolling sphere viscometry	0.5412	–	0.4251	–	0.3468	–	–
5000 kPa, Vibrating wire viscometry	0.5399	0.509	0.4353	0.3915	0.3515	0.306	0.2923
10000 kPa, Falling or rolling sphere viscometry	0.5744	–	0.4517	–	0.37	–	–
10000 kPa, Vibrating wire viscometry	0.5733	0.5388	0.4633	0.4157	0.3754	0.3274	0.3175
20000 kPa, Falling or rolling sphere viscometry	0.6401	–	0.5129	–	0.4153	–	–
20000 kPa, Vibrating wire viscometry	0.6366	0.6027	0.5177	0.464	0.4216	0.3692	0.357
30000 kPa, Falling or rolling sphere viscometry	0.7047	–	0.5662	–	0.459	–	–
30000 kPa, Vibrating wire viscometry	0.7059	0.6672	0.5775	0.5146	0.4705	0.4131	0.3966
40000 kPa, Falling or rolling sphere viscometry	0.7738	–	0.6128	–	0.5083	–	–
40000 kPa, Vibrating wire viscometry	0.7817	0.7394	0.6351	0.5714	0.5232	0.4565	0.4379
50000 kPa, Vibrating wire viscometry	0.8608	0.8154	0.6902	0.6255	0.579	0.5022	0.4853
60000 kPa, Falling or rolling sphere viscometry	0.9262	–	0.7307	–	0.6083	–	–
60000 kPa, Vibrating wire viscometry	0.9567	0.8956	0.7509	0.6832	0.6246	0.5476	0.5294
70000 kPa, Vibrating wire viscometry	1.042	0.9815	0.8173	0.742	0.6779	0.6049	0.5738
80000 kPa, Falling or rolling sphere viscometry	1.115	–	0.8553	–	0.6981	–	–
80000 kPa, Vibrating wire viscometry	1.127	1.07	0.8861	0.7969	0.728	0.6507	0.6288
100000 kPa, Falling or rolling sphere viscometry	1.298	–	1.024	–	0.8101	–	–
100000 kPa, Vibrating wire viscometry	1.316	1.234	1.045	0.9249	0.8361	0.7538	0.7176
120000 kPa, Falling or rolling sphere viscometry	–	–	1.185	–	0.9406	–	–
120000 kPa, Vibrating wire viscometry	1.518	1.435	1.195	1.068	0.9606	0.864	0.8245
140000 kPa, Vibrating wire viscometry	1.739	1.648	1.363	1.21	1.095	0.977	0.9332
